Like-named read-outs stand apart in the source and are kept apart here.
Columns and labels:
[1] = system: PC3 cells (Prostrate Cancer); experiment: Anticancer (cytotoxic) activity, MTT colorimetric assay; assay type: cell-based; conditions: compounds 1-30 μM, n = 3, read-out: Anticancer activity (PC-3 cell line) IC50 ± SEM
Experimental: (§1) Various In vitro assays were performed to the assessment of biological activity of newly synthesized compounds. Results were presented here as means ± standard error from triplicate (n = 3) observation. IC50 values were calculated by using EZ-FIT, Enzyme kinetics software by Perrella Scientific.
Cytotoxic activity of compounds was evaluated in 96-well flat-bottomed microplates by using the standard MTT (3-[4, 5-dimethylthiazole-2-yl]-2, 5-diphenyl-tetrazolium bromide, MP) colorimetric assay. For this purpose, PC3 cells (Prostrate Cancer) were cultured in Dulbecco’s Modified Eagle Medium, supplemented with 10% of fetal bovine serum (FBS, PAA), 100 IU/mL of penicillin and 100 μ g/mL of streptomycin in 75 cm^2 flasks, and kept in 5% CO2 incubator at 37°C. Exponentially growing cells were harvested, counted with haemocytometer and diluted with a particular medium with 5% FBS. Cell culture with the concentration of 1x10^5 cells/mL was prepared and introduced (100 μL/well) into 96-well plates. After overnight incubation, medium was removed and 200 μL of fresh medium was added with different concentrations of compounds (1-30 μM). Stock solution, 20 mM of compounds were prepared in 100% DMSO and final concentration of DMSO at 30 μM is 0.15% .After 48 hrs, 200 μL MTT (0.5 mg/mL) was added to each well and incubated further for 4 hrs. Subsequently, 100 μL of DMSO was added to each well. The extent of MTT reduction to formazan within cells was calculated by measuring the absorbance at 570 nm, using a micro plate reader (Spectra Max plus, Molecular Devices, CA, USA). The cytotoxicity was recorded as concentration causing 50% growth inhibition (IC50) for PC3 cells. The percent inhibition was calculated by using the following formula:
% inhibition = 100-((mean of O.D of test compound – mean of O.D of negative control)/ (mean of O.D of positive control – mean of O.D of negative control)*100).
The results (% inhibition) were processed by using Soft- Max Pro software (Molecular Device, USA).

[2] = DPPH radical scavenging antioxidant assay; conditions: DPPH 300 μM, half an hour at 37°C, 515 nm, NA = not active, failed to show 50% or more inhibition at 500 μM or more, read-out: DPPH radical scavenging assay IC50 ± SEM
Experimental: as §1
Test samples were allowed to react with stable free radical, 1, 1-diphenyl-2-picrylhydrazyl radical (DPPH, Wako Chemicals USA, Inc.)) for half an hour at 37°C. Various concentrations of test samples (prepared in DMSO) were incubated with DPPH (300 μM; prepared in ethanol). After incubation, decrease in absorption was measured at 515 nm using a microplate reader (SpectraMax plus 384). Percentage radical scavenging activity (% RSA) by samples was determined, in comparison with a DMSO- treated control group.% Radical scavenging activity was calculated by using the formula given in statistical analysis section.

[3] = biological target: T1, β-Glucuronidase (Escherichia coli, UniProt P05804); experiment: In vitro β-glucuronidase inhibition assay; assay type: biochemical; conditions: p-nitrophenyl-β-D-glucuronide substrate, 37°C, 405 nm; NA = not active, failed to show 50% or more inhibition at 500 μM or more; read-out: ß-Glucuronidase inhibition IC50 ± SEM
T1 construct: purchased Sigma Aldrich G7396-25KU
T1 sequence (P05804 whole entry): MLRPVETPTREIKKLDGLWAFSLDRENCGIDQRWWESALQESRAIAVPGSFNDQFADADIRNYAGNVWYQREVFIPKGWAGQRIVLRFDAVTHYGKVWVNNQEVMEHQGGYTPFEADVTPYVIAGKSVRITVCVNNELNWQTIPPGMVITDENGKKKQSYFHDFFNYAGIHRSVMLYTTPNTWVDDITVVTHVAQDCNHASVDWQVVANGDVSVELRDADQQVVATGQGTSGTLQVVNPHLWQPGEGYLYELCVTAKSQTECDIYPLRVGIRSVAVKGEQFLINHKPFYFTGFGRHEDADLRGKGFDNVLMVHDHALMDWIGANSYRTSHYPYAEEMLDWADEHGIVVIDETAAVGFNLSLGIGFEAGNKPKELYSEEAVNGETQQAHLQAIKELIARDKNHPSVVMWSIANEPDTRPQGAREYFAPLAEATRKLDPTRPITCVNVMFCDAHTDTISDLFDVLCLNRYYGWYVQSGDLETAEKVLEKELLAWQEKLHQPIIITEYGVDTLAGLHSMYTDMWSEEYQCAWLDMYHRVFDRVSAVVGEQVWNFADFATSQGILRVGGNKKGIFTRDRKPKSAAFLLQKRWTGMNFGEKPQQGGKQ
Experimental: as §1
β-Glucuronidase inhibitory activity was determined by the spectrophotometric method by measuring the absorbance at 405 nm of p-nitrophenol formed from the substrate (p-nitrophenyl-β-D-glucuronide N1627-250 mg (Sigma Aldrich). The total reaction volume was 250 μL. The compound (5 μL) was dissolved in DMSO (100%), which becomes 2% in the ultimate assay (250 μL) and the similar conditions were used for standard (D-saccharic acid 1, 4-lactone, Sigma Aldrich). The reaction mixture contained 185 μL of 0.1 M acetate buffer, 5 μL of test compound solution, 10 μL of (1U) enzyme solution (G7396-25KU, Sigma Aldrich) was incubated at 37°C for 30 min. The plates were read on a multiplate reader (SpectraMax plus 384) at 405 nm after the addition of 50 μL of 0.4 mM p-nitrophenyl-β-D-glucuronide. All assays were performed in triplicate. IC50 Values were calculated by using EZ-Fit software (Perrella Scientific Inc., Amherst, MA, U.S.A.). These values are the mean of three independent readings.

| melting point [°C] | Structure (SMILES) | IC50 ([1]; Homo sapiens, PC-3, 48 h) [µM] | other results |
| --- | --- | --- | --- |
| > 320 | Cc1c(C(=O)CNc2ccccc2)sc2sc(C(=O)CNc3ccccc3)c(-c3ccccc3)c12 [Compound 9a, 1,1'-(3-Methyl-4-phenylthieno[2,3-b]thiophene-2,5-diyl)bis(2-(phenylamino)ethanone)] | > 30 | – |
| 260 to 261 | Cc1c(-c2csc(N)n2)sc2sc(-c3csc(N)n3)c(-c3ccccc3)c12 [Compound 8b, 4,4'-(3-Methyl-4-phenylthieno[2,3-b]thiophene-2,5-diyl)dithiazol-2-amine] | 24.2 ± 0.29 | – |
| – | COc1cccc2c1C(=O)c1c(O)c3c(c(O)c1C2=O)C[C@@](O)(C(=O)CO)C[C@@H]3O[C@H]1C[C@H](N)[C@H](O)[C@H](C)O1 [Doxorubicin, reference compound] | 0.912 ± 0.12 | IC50 ([1]; 48 hrs): 0.91 µM |
| > 320 | Cc1c(-c2cn3c(nc4ccccc43)[nH]2)sc2sc(-c3cn4c(nc5ccccc54)[nH]3)c(-c3ccccc3)c12 [Compound 6, 5,5'-(3-Methyl-4-phenylthieno[2,3-b]thiophene-2,5-diyl)bis(1H-imidazo[1,2a]benzimidazole)] | – | – |
| > 320 | Cc1c(-c2c[nH]c(N)n2)sc2sc(-c3c[nH]c(N)n3)c(-c3ccccc3)c12 [Compound 8c, 4,4'-(3-Methyl-4-phenylthieno[2,3-b]thiophene-2,5-diyl)bis(1H-imidazol-2-amine)] | – | – |
| – | CC(=O)N[C@@H](CS)C(=O)O [N-Acetylcysteine] | – | IC50 ([2]; listed as N-acetylcystein): 106 ± 1.1 µM; IC50 [2]: 106 µM |
| > 320 | Cc1c(C(=O)CNc2ccc(Cl)cc2)sc2sc(C(=O)CNc3ccc(Cl)cc3)c(-c3ccccc3)c12 [Compound 9b, 1,1'-(3-Methyl-4-phenylthieno[2,3-b]thiophene-2,5-diyl)bis(2-(4-chlorophenylamino)ethanone)] | > 30 | – |
| – | O=C(O)[C@@H](O)[C@H]1OC(=O)[C@H](O)[C@H]1O [D-Saccharic acid 1,4-lactone, reference compound] | – | IC50 [3]: 45800 nM |
| 238 to 239 | COc1ccc(C=C(C#N)c2nc(-c3sc4sc(-c5csc(C(C#N)=Cc6ccc(OC)cc6)n5)c(-c5ccccc5)c4c3C)cs2)cc1 [Compound 4c, 2-(4-(5-(2-(1-Cyano-2-(4-methoxyphenyl)vinyl)thiazol-4-yl)-3-methyl-4-phenylthieno[2,3-b]thiophen-2-yl)thiazol-2-yl)-3-(4-methoxyphenyl)acrylonitrile] | – | – |
| > 320 | Cc1c(-c2csc(CC#N)n2)sc2sc(-c3csc(CC#N)n3)c(-c3ccccc3)c12 [Compound 3, 2,2'-(4,4'-(3-Methyl-4-phenylthieno[2,3-b]thiophene-2,5-diyl)bis(thiazole-4,2-diyl)) diacetonitrile] | > 30 | – |
| 167 to 168 | Cc1c(-c2csc(C(C#N)=Cc3ccc(Cl)cc3)n2)sc2sc(-c3csc(C(C#N)=Cc4ccc(Cl)cc4)n3)c(-c3ccccc3)c12 [Compound 4b, 3-(4-Chlorophenyl)-2-(4-(5-(2-(2-(4-chlorophenyl)-1-cyanovinyl)thiazol-4-yl)-3-methyl-4-phenylthieno[2,3-b]thiophen-2-yl)thiazol-2-yl)acrylonitrile] | > 30 | – |
| > 320 | Cc1c(-c2cn3[nH]cnc3n2)sc2sc(-c3cn4[nH]cnc4n3)c(-c3ccccc3)c12 [Compound 7, 5,5'-(3-Methyl-4-phenylthieno[2,3-b]thiophene-2,5-diyl)bis(1H-imidazo[1,2-b] [1,2, 4]triazole)] | – | – |
| 220 to 221 | Cc1c(-c2csc(C(C#N)=Cc3ccccc3)n2)sc2sc(-c3csc(C(C#N)=Cc4ccccc4)n3)c(-c3ccccc3)c12 [Compound 4a, 2-(4-(5-(2-(1-Cyano-2-phenylvinyl)thiazol-4-yl)-3-methyl-4-phenylthieno[2,3-b]thiophen-2-yl)thiazol-2-yl)-3-phenylacrylonitrile] | > 30 | – |

| Structure (SMILES) | melting point [°C] | IC50 ([1]; Homo sapiens, PC-3, 48 h) [µM] | other results |
| --- | --- | --- | --- |
| Cc1c(C2=C(C#N)C=NC2)sc2sc(C3=C(C#N)C=NC3)c(-c3ccccc3)c12 [Compound 5, 3-(5-(4-Cyano-2H-pyrrol-3-yl)-3-methyl-4-phenylthieno[2,3-b]thiophen-2-yl)-2H-pyrrole-4-carbonitrile] | > 320 | > 30 | IC50 [3]: 130 ± 19 nM |
| Cc1c(-c2coc(N)n2)sc2sc(-c3coc(N)n3)c(-c3ccccc3)c12 [Compound 8a, 4,4'-(3-Methyl-4-phenylthieno[2,3-b]thiophene-2,5-diyl)dioxazol-2-amine] | > 320 | > 30 | IC50 [3]: 1200 ± 78.5 nM |

— publication PMC3728144, “Synthesis, reactions and biological activity of some new bis-heterocyclic ring compounds containing sulphur atom” (Chemistry Central Journal, 2013)
